# BindingDB's records for doi:10.1021/jm00046a002 (Upjohn, 1994)
# Experiments:
# [1] = biological target: T1, Dimer of Gag-Pol polyprotein [489-587] (Human immunodeficiency virus 1, UniProt P12497); assay: Protease Inhibition Assay
# T1 construct: 489-587
# From the text: (§1) HIV-1 protease was purified and refolded from E. coli inclusion bodies. The substrate used spans the p17-p24 processing site (R-V-S-Q-N-Y-P-I-V-Q-N-K) and was derivatized with biotin and fluorescein isothiocyanate (FITC) at the amino and carboxy termini. In the presence of HIV-l protease, the substrate is rapidly cleaved into two parts. The biotinylated amino terminal fragment binds to the avidin beads while the FITC-containing carboxy1 terminal fragment is removed through the membrane. […] The bound fluorescence is obtained by processing on an IDEXX Screen Machine. Determination of Ki values with this assay requires analysis under conditions in which substrate concentration resides substantially below Km and the inhibitor concentrations greatly exceeds the Ki value and the enzyme concentration.
# [2] = biological target: T2, Dimer of Gag-Pol polyprotein [514-612] (Human immunodeficiency virus 2, UniProt P04584); assay: Protease Inhibition Assay
# T2 construct: 514-612
# T2 sequence (P04584 whole entry): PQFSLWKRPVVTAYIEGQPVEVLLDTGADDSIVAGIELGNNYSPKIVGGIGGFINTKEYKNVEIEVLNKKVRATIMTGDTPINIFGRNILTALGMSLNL
# From the text: as §1
Structure (SMILES),Ki [1] [µM],Ki [2] [µM]
O=c1oc2c(c(O)c1C(c1ccccc1)C1CC1)CCCCCC2 (configuration not stated),0.015,
CCC(Cc1ccccc1)c1cc(O)c(C(CC)c2ccccc2)c(=O)o1 (configuration not stated) [4-hydroxy-6-(1-phenylbutan-2-yl)-3-(1-phenylpropyl)-2H-pyran-2-one],,0.032
